The results in this text go back to paper PMC12040169 (PLOS Biology, 2025).

Each structure is given as a SMILES string.

This series in a line: in vitro. As to conditions: human, hela cells, % viability.
Take `CC(CNC(=O)Cc1ccc(C(F)(F)F)cc1[N+](=O)[O-])N1CCc2ccccc2C1` (centres unmarked) [CBK298292]: the viability (in general, a read-out of living cells in per cent, often relative to untreated cells) at 28.5 h, 10 µM came to 88.8%.

Turning to `Cn1c(SCC(=O)N2CCN(c3ccccc3)CC2)nc2cc(Cl)ccc21` [CBK298295], the viability at 28.5 h, 10 µM was 99.7%. Turning to `O=C(C(OCC(F)(F)F)c1ccccc1)N1CCN(c2nccs2)CC1` (centres unmarked) [CBK298299], the viability at 28.5 h, 10 µM was determined as 91.9%. With `O=C(c1cccc(C(F)(F)F)c1)N1CCN(C(=O)c2ccc3c(c2)CCC3)CC1` [CBK298300] the figure was 91.5%; with `O=C(NCC1Cc2ccccc2O1)c1cccc(NC(=O)c2ccco2)c1` (centres unmarked) [CBK298302], 83.3%. To `CC(=O)N1CCc2cc(C(=O)N[C@@H](Cc3ccccc3)C(=O)O)ccc21` [CBK298303] belongs 102%; to `Cc1cc(Cc2cnc(NC(=O)c3ccncc3)s2)ccc1Br` [CBK298304], 106%. To `Cc1cc2nnc(SC(C)c3nc(-c4ccccc4)no3)n2c(C)n1` (centres unmarked) [CBK298306] belongs 91.7%; to `Cc1cc(C)cc(C(=O)N2CCCC(C(=O)N3CCN(c4nccs4)CC3)C2)c1` (centres unmarked) [CBK298307], 95.1%; to `Cc1nnc(C(C)Sc2nnc(N3CCC(C)CC3)n2Cc2ccco2)o1` (centres unmarked) [CBK298311], 96.6%. `O=C(c1nc(=O)[nH][nH]1)N1CCN(Cc2ccc(C(F)(F)F)cc2)CC1` [CBK298312]: the viability at 28.5 h, 10 µM is 95.5%. Turning to `CC(=O)NC(CC(=O)NCc1cccnc1-n1cncn1)c1ccc(Cl)cc1` (centres unmarked) [CBK298314], the viability at 28.5 h, 10 µM was determined as 101%.

Consider `Cc1ccn2c(=O)c(C(=O)NCc3cccnc3N3CCOCC3)cnc2c1` [CBK298316], for which the viability at 28.5 h, 10 µM came out at 86.1%.

Turning to `CC(=O)Nc1cccc(-n2nnnc2SCCCc2nc3ccccc3o2)c1` [CBK298317], the viability at 28.5 h, 10 µM is 85.5%. Consider `COc1ccccc1CC(=O)NCCC(=O)N1CCN(c2ccc(F)cc2)CC1` [CBK298318], for which the viability at 28.5 h, 10 µM turned out to be 87.6%. As to `O=C(NCC1Cc2ccccc2O1)c1ccc(Br)cc1Cl` (centres unmarked) [CBK298323], the viability at 28.5 h, 10 µM is 86.9%. To `CC(SCc1ccccc1)C(=O)NCc1ccnc(OCC(F)(F)F)c1` (centres unmarked) [CBK298325] belongs 111%. With `CSc1ccc(CN(C)c2cncc(-n3cccn3)n2)cc1` [CBK298326] the figure was 91.2%; with `Cc1ccc(C(=O)NCCC(=O)Nc2ccccn2)cc1NC(=O)c1ccco1` [CBK298328], 92.2%; with `Cc1ccccc1-n1c(C)cc(C(=O)CSc2nncn2C)c1C` [CBK298330], 91.9%. For `COc1cc(CNC(=O)C(C)SCc2ccccc2)ccn1` (centres unmarked) [CBK298331], the viability at 28.5 h, 10 µM was 90.8%. In the case of `Nc1nccnc1C(=O)N1CCN(C(=O)Cc2c[nH]c3ccccc23)CC1` [CBK298339], the viability at 28.5 h, 10 µM was found to be 88.1%. To `COc1ccc(S(=O)(=O)Nc2ccc(C(=O)O)c(O)c2)cc1[N+](=O)[O-]` [CBK299771] belongs 95.7%; to `O=C(O)c1ccc(NS(=O)(=O)c2ccc(Br)c3ccccc23)cc1O` [CBK299772], 86.5%. Consider `O=C(O)CSc1nc2ccc(NC(=O)COc3ccc(Cl)cc3)cc2s1` [CBK299773], for which the viability at 28.5 h, 10 µM was 84.6%. To `O=C(Nc1ccccc1C(=O)O)c1cccc(NC(=O)c2ccco2)c1` [CBK299774] belongs 88.1%; to `Cc1cccnc1NS(=O)(=O)c1cccs1` [CBK299775], 80.6%; to `CC(C)c1ccc(/C=C2\CCCc3c2nc2ccccc2c3C(=O)O)cc1` [CBK299777], 91.2%. With `CC(=O)c1c(C)oc2c1cc(NS(=O)(=O)c1ccc(C(=O)O)cc1)c1ccccc12` [CBK299780] the figure was 92%; with `CCOc1cc(C(=O)O)ccc1OCCOc1cccc(C)c1` [CBK299781], 91.6%.

Take `COc1cc(C)c(S(=O)(=O)Nc2ccc(CC(=O)O)cc2)cc1C` [CBK299782]: the viability at 28.5 h, 10 µM amounted to 101%. On to `O=C(O)C1CC=CCC1C(=O)Nc1ccc(CN2CCOCC2)cc1` (centres unmarked) [CBK299786], for which the viability at 28.5 h, 10 µM worked out at 107%.

For `CC(C)(CC(=O)O)CC(=O)Nc1ccc(N2CCCC2=O)cc1` [CBK299787], the viability at 28.5 h, 10 µM stood at 109%. With `O=C(O)CCc1ccc(NS(=O)(=O)c2ccc(N3CCCC3=O)cc2)cc1` [CBK299788], the viability at 28.5 h, 10 µM is 116%. Consider `CC(=O)c1c(C)oc2ccc(N(C(C)=O)S(=O)(=O)c3ccc(C(=O)O)cc3)cc12` [CBK299790], for which the viability at 28.5 h, 10 µM was determined as 106%. With `O=C(O)CSc1nc2ccc(NC(=O)c3ccccc3Cl)cc2s1` [CBK299791] the figure was 110%.

For the compound `CCCCCOc1ccc(NS(=O)(=O)c2cccc(C(=O)O)c2)cc1` [CBK299795], the viability at 28.5 h, 10 µM came out at 103%. With `O=C(O)c1ccc(OCCNS(=O)(=O)c2ccc3oc4ccccc4c3c2)cc1` [CBK299797] the figure was 90.8%. Take `CN1C(=O)c2cccc3c(S(=O)(=O)Nc4ccc(C(=O)O)c(O)c4)ccc1c23` [CBK299799]: the viability at 28.5 h, 10 µM came out at 109%.

For the compound `CC(C)COc1ccc(-c2nonc2NC(=O)c2ccco2)cc1` [CBK299802], the viability at 28.5 h, 10 µM stood at 99.1%. To `O=C(O)CCCC(=O)NC(Cc1ccccc1)C(=O)Nc1ccc([N+](=O)[O-])cc1` (centres unmarked) [CBK299806] belongs 84.5%; to `O=C(O)c1ccc(OCCNS(=O)(=O)c2ccc3ccccc3c2)cc1` [CBK299807], 83.5%; to `COc1cccc(C(=O)Nc2nc3ccccc3n2Cc2ccccc2)c1OC` [CBK299811], 91.4%. `O=C(O)c1ccccc1C(=O)Nc1cccc(-c2noc(-c3cccc(F)c3)n2)c1` [CBK299813]: the viability at 28.5 h, 10 µM stood at 92%. For the compound `CC(=O)Nc1ccc(NC(=O)CC2(CC(=O)O)CCCCC2)cc1` [CBK299816], the viability at 28.5 h, 10 µM was determined as 102%. Regarding `O=C(O)c1c(-c2ccccc2)oc2ccc(NS(=O)(=O)c3ccc(F)cc3)cc12` [CBK299817], the viability at 28.5 h, 10 µM worked out at 89.9%.

As for `CC(C)c1ccc(S(=O)(=O)Nc2ccc(C(=O)O)c(O)c2)cc1` [CBK299819], the viability at 28.5 h, 10 µM was 104%. Consider `Cn1c(=O)n(C)c2cc(S(=O)(=O)NCCOc3ccc(C(=O)O)cc3)ccc21` [CBK299824], for which the viability at 28.5 h, 10 µM turned out to be 94.9%. To `COc1cc(S(=O)(=O)NCCOc2ccc(C(=O)O)cc2)c(OC)cc1Cl` [CBK299825] belongs 92.1%. To `CCc1ccc(S(=O)(=O)Nc2ccc(O)c(C(=O)O)c2)cc1` [CBK299827] belongs 90.7%; to `O=C(O)CCC(=O)Nc1nc(-c2ccc(Cl)cc2)cs1` [CBK299829], 86.8%; to `COc1ccc(CNC(=O)C2CCCN(S(C)(=O)=O)C2)cc1OC` (centres unmarked) [CBK299830], 90.2%. With `CCOc1ccc(-c2nc(-c3cccc(NC(=O)c4ccccc4C(=O)O)c3)no2)cc1` [CBK299832] the figure was 85.2%; with `O=C(CSCc1ccc(C(=O)O)cc1)Nc1ccc2ccccc2c1` [CBK299833], 76.1%; with `CN(CCCC(=O)O)c1nc(-c2ccc(Br)cc2)cs1` [CBK299834], 88.6%. For `Cc1noc(C)c1Cc1ccc(C(=O)Nc2nc3ccccc3n2C)o1` [CBK299839], the viability at 28.5 h, 10 µM stood at 85.6%.
